Each block holds one compound with its values, some of them ahead of it.
How the values were obtained:
β-catenin = test: NL-20 β-catenin reporter assay (primary screening assay for IPF); type: cell-based; settings: transformed human bronchial epithelial cell line NL-20
Text: Compounds of Formulas (I) or (II) were screened in a β-catenin-based reporter assay in a transformed human bronchial epithelial cell line (NL-20).

Wnt pathway = test: Wnt activity reporter assay (SP5 promoter-luciferase in SW480 cells); type: cell-based; settings: Homo sapiens, SP5 promoter firefly luciferase reporter, read-out: Wnt inhibition
Summary of the method: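 SW480 cells stably carrying an SP5 promoter (eight TCF/LEF sites)-firefly luciferase reporter were seeded at ~10,000 per well and given half-log compound dilutions from a 10 µM top concentration.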

SMILES: CN(C)Cc1cc(F)cc(-c2cncc3[nH]c(-c4n[nH]c5ncc(-c6cccnc6)cc45)nc23)c1 [Compound 14, 1-(3-Fluoro-5-(2-(5-(pyridin-3-yl)-1H-pyrazolo[3,4-b]pyridin-3-yl)-3H-imidazo[4,5-c]pyridin-7-yl)phenyl)-N,N-dimethylmethanamine]
IC50 (β-catenin; NL20): 2030 nM
IC50 (Wnt pathway): 138 nM

SMILES: CN1CCN(Cc2cc(F)cc(-c3cncc4[nH]c(-c5n[nH]c6ncc(-c7cccnc7)cc56)nc34)c2)CC1 [Compound 10, 3-(7-(3-Fluoro-5-((4-methylpiperazin-1-yl)methyl)phenyl)-3H-imidazo[4,5-c]pyridin-2-yl)-5-(pyridin-3-yl)-1H-pyrazolo[3,4-b]pyridine]
IC50 (β-catenin; NL20): 247 nM
IC50 (Wnt pathway): 263 nM

IC50 (β-catenin): 7000 nM
SMILES: O=C1C(Cc2ccc(O)cc2)N2C(=O)CCN(C(=O)NCc3ccccc3)C2CN1Cc1cccc2ccccc12 (stereo not drawn) [ICG-001, reference compound]

SMILES: Nc1cncc(-c2cnc3[nH]nc(-c4nc5c(-c6cccc(F)c6)cncc5[nH]4)c3c2)c1 [Compound 5, 5-(3-(7-(3-Fluorophenyl)-3H-imidazo[4,5-c]pyridin-2-yl)-1H-pyrazolo[3,4-b]pyridin-5-yl)pyridin-3-amine]
IC50 (β-catenin; NL20): 175 nM
IC50 (Wnt pathway): 3.9 nM

SMILES: CN(C)CCNc1cc(F)cc(-c2cncc3[nH]c(-c4n[nH]c5ncc(-c6cccnc6)cc45)nc23)c1 [Compound 12, N1-(3-Fluoro-5-(2-(5-(pyridin-3-yl)-1H-pyrazolo[3,4-b]pyridin-3-yl)-3H-imidazo[4,5-c]pyridin-7-yl)phenyl)-N2,N2-dimethylethane-1,2-diamine]
IC50 (β-catenin; NL20): 310 nM
IC50 (Wnt pathway): 21 nM

SMILES: CN1CCN(c2cc(F)cc(-c3cncc4[nH]c(-c5n[nH]c6ncc(-c7cccnc7)cc56)nc34)c2)CC1 [Compound 11, 3-(7-(3-Fluoro-5-(4-methylpiperazin-1-yl)phenyl)-3H-imidazo[4,5-c]pyridin-2-yl)-5-(pyridin-3-yl)-1H-pyrazolo[3,4-b]pyridine]
IC50 (β-catenin; NL20): 210 nM
IC50 (Wnt pathway): 99 nM

SMILES: CN(C)Cc1cncc(-c2cnc3[nH]nc(-c4nc5c(-c6cccs6)cncc5[nH]4)c3c2)c1 [Compound 452, N,N-Dimethyl-1-(5-(3-(7-(thiophen-2-yl)-3H-imidazo[4,5-c]pyridin-2-yl)-1H-pyrazolo[3,4-b]pyridin-5-yl)pyridin-3-yl)methanamine]
IC50 (β-catenin; NL20): 1090 nM
IC50 (Wnt pathway): 48 nM

SMILES: CN(C)c1cncc(-c2cnc3[nH]nc(-c4nc5c(-c6cccc(F)c6)cncc5[nH]4)c3c2)c1 [Compound 7, 5-(3-(7-(3-Fluorophenyl)-3H-imidazo[4,5-c]pyridin-2-yl)-1H-pyrazolo[3,4-b]pyridin-5-yl)-N,N-dimethylpyridin-3-amine]
IC50 (β-catenin; NL20): 1900 nM
IC50 (Wnt pathway): 6 nM

SMILES: CN(C)Cc1cncc(-c2cnc3[nH]nc(-c4nc5c(-c6cccc(F)c6)cncc5[nH]4)c3c2)c1 [Compound 18, 1-(5-(3-(7-(3-Fluorophenyl)-3H-imidazo[4,5-c]pyridin-2-yl)-1H-pyrazolo[3,4-b]pyridin-5-yl)pyridin-3-yl)-N,N-dimethylmethanamine]
IC50 (β-catenin; NL20): 440 nM
IC50 (Wnt pathway): 13 nM

SMILES: CC(C)Nc1cncc(-c2cnc3[nH]nc(-c4nc5c(-c6cccc(F)c6)cncc5[nH]4)c3c2)c1 [Compound 9, 5-(3-(7-(3-Fluorophenyl)-3H-imidazo[4,5-c]pyridin-2-yl)-1H-pyrazolo[3,4-b]pyridin-5-yl)-N-isopropylpyridin-3-amine]
IC50 (β-catenin; NL20): 67 nM
IC50 (Wnt pathway): 1.2 nM

SMILES: Nc1cncc(-c2cnc3[nH]nc(-c4nc5c(-c6ccncc6)cccc5[nH]4)c3c2)c1 [Compound 635, 5-(3-(4-(Pyridin-4-yl)-1H-benzo[d]imidazol-2-yl)-1H-pyrazolo[3,4-b]pyridin-5-yl)pyridin-3-amine]
IC50 (Wnt pathway): 34 nM

SMILES: CC(C)Nc1cncc(-c2cnc3[nH]nc(-c4nc5ccncc5[nH]4)c3c2)c1 [Compound 325, 5-(3-(3H-Imidazo[4,5-c]pyridin-2-yl)-1H-pyrazolo[3,4-b]pyridin-5-yl)-N-isopropylpyridin-3-amine]
IC50 (Wnt pathway): 58 nM

SMILES: Cc1cn(-c2cccc3[nH]c(-c4n[nH]c5ncc(-c6cncc(CN(C)C)c6)cc45)nc23)cn1 [Compound 719, N,N-Dimethyl-1-(5-(3-(4-(4-methyl-1H-imidazol-1-yl)-1H-benzo[d]imidazol-2-yl)-1H-pyrazolo[3,4-b]pyridin-5-yl)pyridin-3-yl)methanamine]
IC50 (Wnt pathway): 200 nM

SMILES: CC(C)(C)C(=O)Nc1cncc(-c2cnc3[nH]nc(-c4nc5c(-c6ccoc6)cccc5[nH]4)c3c2)c1 [Compound 818, N-(5-(3-(4-(Furan-3-yl)-1H-benzo[d]imidazol-2-yl)-1H-pyrazolo[3,4-b]pyridin-5-yl)pyridin-3-yl)pivalamide]
IC50 (Wnt pathway): 50 nM

SMILES: O=C(Nc1cncc(-c2cnc3[nH]nc(-c4nc5c(-c6ccccc6F)cccc5[nH]4)c3c2)c1)C1CCC1 [Compound 605, N-(5-(3-(4-(2-Fluorophenyl)-1H-benzo[d]imidazol-2-yl)-1H-pyrazolo[3,4-b]pyridin-5-yl)pyridin-3-yl)cyclobutanecarboxamide]
IC50 (Wnt pathway): 18 nM

SMILES: CN(C)Cc1cncc(-c2cnc3[nH]nc(-c4nc5c(-c6cncc(F)c6)cncc5[nH]4)c3c2)c1 [Compound 20, 1-(5-(3-(7-(5-Fluoropyridin-3-yl)-3H-imidazo[4,5-c]pyridin-2-yl)-1H-pyrazolo[3,4-b]pyridin-5-yl)pyridin-3-yl)-N,N-dimethylmethanamine]
IC50 (Wnt pathway): 10000 nM

SMILES: CC(C)(C)CC(=O)Nc1cncc(-c2cnc3[nH]nc(-c4nc5c(-c6cccnc6)cncc5[nH]4)c3c2)c1 [Compound 179, 3,3-Dimethyl-N-(5-(3-(7-(pyridin-3-yl)-3H-imidazo[4,5-c]pyridin-2-yl)-1H-pyrazolo[3,4-b]pyridin-5-yl)pyridin-3-yl)butanamide]
IC50 (Wnt pathway): 1450 nM

SMILES: CN1CCN(c2cncc3[nH]c(-c4n[nH]c5ncc(-c6cncc(NC(=O)C7CCCCC7)c6)cc45)nc23)CC1 [Compound 309, N-(5-(3-(7-(4-Methylpiperazin-1-yl)-3H-imidazo[4,5-c]pyridin-2-yl)-1H-pyrazolo[3,4-b]pyridin-5-yl)pyridin-3-yl)cyclohexanecarboxamide]
IC50 (Wnt pathway): 1020 nM
